The text below walks through data of ChEMBL document CHEMBL4828709, “Discovery of 2,4-pyrimidinediamine derivatives as potent dual inhibitors of ALK and HDAC” (Eur J Med Chem, 2021).

In assay [1] the target is T1, ALK tyrosine kinase receptor (Homo sapiens, UniProt Q9UM73). The assay can be described thus: Inhibition of ALK (unknown origin) at 10 nM preincubated for 10 mins followed by addition of substrate and ATP for 25 mins by caliper EZ reader method. The settings on record: time 35.0 min.
Assay [2] addresses T2, Histone deacetylase 1 (Homo sapiens, UniProt Q13547). The note with it: Sf9, dose 10.0 nM, time 15.0 min.
Assay [3] deals with T1, ALK tyrosine kinase receptor. The assay can be described thus: Inhibition of ALK (unknown origin) at 100 nM preincubated for 10 mins followed by addition of substrate and ATP for 25 mins by caliper EZ reader method. The settings on record: time 35.0 min.
Assay [4] has as its target T2, Histone deacetylase 1. The settings on record: Sf9, dose 100.0 nM, time 15.0 min.

T1 sequence (Q9UM73 19-1620 limits assumed): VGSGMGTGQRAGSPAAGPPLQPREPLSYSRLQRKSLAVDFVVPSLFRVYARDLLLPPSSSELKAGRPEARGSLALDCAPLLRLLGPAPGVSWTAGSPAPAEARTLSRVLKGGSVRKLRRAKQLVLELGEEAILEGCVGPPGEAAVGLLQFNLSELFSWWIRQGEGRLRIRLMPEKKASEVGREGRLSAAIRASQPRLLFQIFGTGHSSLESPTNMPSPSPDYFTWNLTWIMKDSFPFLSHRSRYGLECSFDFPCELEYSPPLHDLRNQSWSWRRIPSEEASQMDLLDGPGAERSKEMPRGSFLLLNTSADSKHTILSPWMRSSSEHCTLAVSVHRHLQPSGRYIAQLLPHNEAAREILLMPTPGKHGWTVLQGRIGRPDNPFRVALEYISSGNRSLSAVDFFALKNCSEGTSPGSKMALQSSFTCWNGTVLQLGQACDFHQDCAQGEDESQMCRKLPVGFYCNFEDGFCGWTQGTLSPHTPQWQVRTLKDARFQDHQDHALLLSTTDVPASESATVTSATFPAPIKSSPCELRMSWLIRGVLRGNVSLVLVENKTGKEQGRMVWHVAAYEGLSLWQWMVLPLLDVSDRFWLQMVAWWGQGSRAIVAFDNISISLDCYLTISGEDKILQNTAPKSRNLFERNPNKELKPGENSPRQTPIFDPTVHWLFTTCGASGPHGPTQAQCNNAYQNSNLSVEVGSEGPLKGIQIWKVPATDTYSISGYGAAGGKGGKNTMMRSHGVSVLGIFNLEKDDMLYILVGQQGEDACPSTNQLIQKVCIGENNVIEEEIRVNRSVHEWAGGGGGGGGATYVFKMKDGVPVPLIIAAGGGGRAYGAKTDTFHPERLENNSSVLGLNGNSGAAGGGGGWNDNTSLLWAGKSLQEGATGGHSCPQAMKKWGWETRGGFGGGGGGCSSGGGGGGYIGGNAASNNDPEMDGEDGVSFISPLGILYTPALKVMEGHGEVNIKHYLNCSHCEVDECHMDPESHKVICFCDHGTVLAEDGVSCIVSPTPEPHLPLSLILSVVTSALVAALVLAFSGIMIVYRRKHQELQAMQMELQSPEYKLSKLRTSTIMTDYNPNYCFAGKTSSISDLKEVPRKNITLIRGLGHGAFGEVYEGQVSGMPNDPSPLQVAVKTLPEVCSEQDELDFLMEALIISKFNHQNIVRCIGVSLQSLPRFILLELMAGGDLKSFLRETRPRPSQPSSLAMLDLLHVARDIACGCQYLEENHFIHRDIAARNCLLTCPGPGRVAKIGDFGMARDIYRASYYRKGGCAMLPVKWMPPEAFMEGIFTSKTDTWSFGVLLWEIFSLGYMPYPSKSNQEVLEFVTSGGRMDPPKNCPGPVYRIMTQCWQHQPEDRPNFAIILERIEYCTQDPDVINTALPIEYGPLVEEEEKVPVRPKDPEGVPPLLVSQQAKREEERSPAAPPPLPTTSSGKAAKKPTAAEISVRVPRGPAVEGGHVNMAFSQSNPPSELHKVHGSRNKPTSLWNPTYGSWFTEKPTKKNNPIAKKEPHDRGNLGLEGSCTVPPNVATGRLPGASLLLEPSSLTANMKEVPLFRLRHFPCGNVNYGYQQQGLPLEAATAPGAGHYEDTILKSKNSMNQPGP
T2 sequence (Q13547 whole entry): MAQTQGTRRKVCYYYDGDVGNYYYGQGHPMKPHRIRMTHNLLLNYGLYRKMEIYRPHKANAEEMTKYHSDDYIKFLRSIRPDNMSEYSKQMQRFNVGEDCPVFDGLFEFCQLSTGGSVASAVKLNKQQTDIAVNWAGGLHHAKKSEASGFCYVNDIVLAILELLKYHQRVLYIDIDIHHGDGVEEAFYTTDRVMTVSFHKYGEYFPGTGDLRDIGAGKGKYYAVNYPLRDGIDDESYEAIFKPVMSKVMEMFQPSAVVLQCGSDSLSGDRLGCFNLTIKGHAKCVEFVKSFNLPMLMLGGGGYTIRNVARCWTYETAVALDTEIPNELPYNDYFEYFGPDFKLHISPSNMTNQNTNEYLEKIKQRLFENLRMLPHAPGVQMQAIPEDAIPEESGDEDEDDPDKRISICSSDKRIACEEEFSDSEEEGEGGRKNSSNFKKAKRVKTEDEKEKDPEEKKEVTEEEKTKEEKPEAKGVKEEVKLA

As to `Cc1cc(Nc2ncc(Cl)c(Nc3ccccc3S(=O)(=O)C(C)C)n2)ccc1C(=O)NCCCCCCC(=O)NO`, the inhibition in assay [1] was determined as 98.1%; in assay [2], 35%; in assay [3] it was 101%; in assay [4], 78%.
Turning to `Cc1c(Nc2ncc(Cl)c(Nc3ccccc3S(=O)(=O)C(C)C)n2)cccc1C(=O)NCCCCCC(=O)NO`, the inhibition was 86.8% in assay [1], 7% in assay [2], 98.5% in assay [3] and 49% in assay [4].
For the compound `CC(C)S(=O)(=O)c1ccccc1Nc1nc(Nc2ccc(C(=O)NCCCCCC(=O)NO)c(Cl)c2)ncc1Cl`, the inhibition in assay [1] is 87.7%; in assay [2], 45%; in assay [3], 97.8%; in assay [4], 93%.
The matching figures for `CC(C)S(=O)(=O)c1ccccc1Nc1nc(Nc2cccc(C(=O)NCCCCCC(=O)NO)c2)ncc1Cl`: 83.2%, 35%, 97.3% and 84%.
Taken in the same sequence, the figures for `COc1cnc(Nc2ccc(NC(=O)CCCCCCC(=O)NO)cc2)nc1Nc1ccccc1S(=O)(=O)C(C)C` were 60.4%, 68%, 94.9% and 91%.
The matching figures for `COc1cc(Nc2ncc(Cl)c(Nc3ccccc3S(=O)(=O)C(C)C)n2)ccc1C(=O)NCCCCCC(=O)NO`: 99%, 26%, 101% and 74%.
On to `Cc1cc(Nc2ncc(Cl)c(Nc3ccccc3S(=O)(=O)C(C)C)n2)ccc1C(=O)NCCCCCC(=O)NO`, for which the inhibition was 97.8% in assay [1], 48% in assay [2], 102% in assay [3] and 93% in assay [4].
Taken in the same sequence, the figures for `O=C(CCCCCCC(=O)Nc1ccc(Nc2ncc(Cl)c(Nc3ccccc3Br)n2)cc1)NO` were 0.2%, 67%, 25% and 88%.
For `Cc1cccc(Nc2nc(Nc3ccc(NC(=O)CCCCCCC(=O)NO)cc3)ncc2Cl)c1`, the inhibition in assay [1] was determined as 0.2%; in assay [3], 4.9%.
Turning to `Cc1ccc(Nc2ncc(Cl)c(Nc3ccccc3S(=O)(=O)C(C)C)n2)cc1NC(=O)CCCCC(=O)NO`, the inhibition in assay [1] was found to be 76.9%; in assay [2], 8%; in assay [3], 98.5%; in assay [4] it was 39%.
For the compound `CC(C)S(=O)(=O)c1ccccc1Nc1nc(Nc2ccc(C(=O)NCCCCCC(=O)NO)cc2)ncc1Cl`, the inhibition in assay [1] was found to be 89.4%; in assay [2] it was 55%; in assay [3], 98.1%; in assay [4], 101%.
Taken in the same sequence, the figures for `Cc1cc(C(=O)NCCCCCC(=O)NO)ccc1Nc1ncc(Cl)c(Nc2ccccc2S(=O)(=O)C(C)C)n1` were 93.1%, 58%, 97.3% and 96%.
For `CC(C)S(=O)(=O)c1ccccc1Nc1nc(Nc2ccc(C(=O)NCCCC(=O)NO)cc2)ncc1Cl`, the inhibition in assay [1] was 91.2%; in assay [2], -2%; in assay [3], 97.9%; in assay [4] it was 4%.
Taken in the same sequence, the figures for `CC(C)S(=O)(=O)c1ccccc1Nc1nc(Nc2cccc(C(=O)NCCCCC(=O)NO)c2)ncc1Cl` were 81%, 23%, 97.7% and 65%.
Taken in the same sequence, the figures for `O=C(CCCCCCC(=O)Nc1ccc(Nc2ncc(Cl)c(Nc3ccccc3Cl)n2)cc1)NO` were 3.1%, 67%, 21.2% and 90%.
Consider `CC(C)S(=O)(=O)c1ccccc1Nc1nc(Nc2cccc(C(=O)NCCCC(=O)NO)c2)ncc1Cl`, for which the inhibition in assay [1] stood at 85.7%; in assay [2], 4%; in assay [3] it was 98%; in assay [4] it was 44%.
The matching figures for `COc1cccc(Nc2nc(Nc3ccc(NC(=O)CCCCCCC(=O)NO)cc3)ncc2C(F)(F)F)c1`: 4.9%, 56%, 7.6% and 89%.
For `CC(C)S(=O)(=O)c1ccccc1Nc1nc(Nc2ccc(C(=O)NCCCCC(=O)NO)cc2)ncc1Cl`, the inhibition in assay [1] was 85.2%; in assay [2], 8%; in assay [3] it was 98.8%; in assay [4], 31%.
Taken in the same sequence, the figures for `CC(C)S(=O)(=O)c1ccccc1Nc1nc(Nc2ccc(NC(=O)CC(=O)NO)cc2)ncc1Cl` were 92.1%, -10%, 98.2% and -7%.
Taken in the same sequence, the figures for `CC(C)S(=O)(=O)c1ccccc1Nc1nc(Nc2ccc(C(=O)NCCCCCCC(=O)NO)c(Cl)c2)ncc1Cl` were 70.3%, 24%, 100% and 67%.
For `CC(C)S(=O)(=O)c1ccccc1Nc1nc(Nc2ccc(NC(=O)CCCCCC(=O)NO)cc2)ncc1Cl`, the inhibition in assay [1] turned out to be 86.5%; in assay [2], 52%; in assay [3] it was 98.8%; in assay [4], 90%.
For the compound `COc1ccc(C)c(Nc2nc(Nc3ccc(NC(=O)CCCCCCC(=O)NO)cc3)ncc2Cl)c1`, the inhibition in assay [1] was -0.7%; in assay [3] it was 4.9%.
On to `CC(C)S(=O)(=O)c1ccccc1Nc1nc(Nc2cccc(NC(=O)CCCCCC(=O)NO)c2)ncc1Cl`, for which the inhibition in assay [1] was found to be 89.4%; in assay [2], 55%; in assay [3], 98%; in assay [4], 86%.
Taken in the same sequence, the figures for `CC(C)S(=O)(=O)c1ccccc1Nc1nc(Nc2ccc(NC(=O)CCCC(=O)NO)cc2)ncc1Cl` were 87.6%, 4%, 98.5% and 17%.
The matching figures for `COc1cc(C(=O)NCCCCCC(=O)NO)ccc1Nc1ncc(Cl)c(Nc2ccccc2S(=O)(=O)C(C)C)n1`: 97.3%, 45%, 98.5% and 86%.
Taken in the same sequence, the figures for `CC(C)S(=O)(=O)c1ccccc1Nc1nc(Nc2ccc(/C=C/C(=O)NO)cc2)ncc1Cl` were 71.6%, 0%, 101% and 3%.
In the case of `Cc1cnc(Nc2ccc(NC(=O)CCCCCCC(=O)NO)cc2)nc1Nc1ccccc1S(=O)(=O)C(C)C`, the inhibition in assay [1] is 83.5%; in assay [2], 63%; in assay [3], 97.9%; in assay [4], 93%.
The matching figures for `CC(C)S(=O)(=O)c1ccccc1Nc1nc(Nc2cccc(C(=O)NCCC(=O)NO)c2)ncc1Cl`: 81%, -1%, 99.1% and 4%.
Taken in the same sequence, the figures for `CC(C)S(=O)(=O)c1ccccc1Nc1nc(Nc2cccc(C(=O)NCCCCCCC(=O)NO)c2)ncc1Cl` were 82.6%, 41%, 96.6% and 84%.
In the case of `CC(C)S(=O)(=O)c1ccccc1Nc1nc(Nc2cccc(C(=O)NO)c2)ncc1Cl`, the inhibition in assay [2] is -3%.
As for `CC(C)S(=O)(=O)c1ccccc1Nc1nc(Nc2ccc(NC(=O)CCCCCCC(=O)NO)cc2)ncc1F`, the inhibition in assay [1] was 66.3%; in assay [2], 70%; in assay [3], 96%; in assay [4] it was 94%.
For `CC(C)S(=O)(=O)c1ccccc1Nc1nc(Nc2ccc(C(=O)NO)cc2)ncc1Cl`, the inhibition in assay [1] was 81.1%; in assay [2], 0.1%.
Regarding `COc1ccc(Nc2nc(Nc3ccc(NC(=O)CCCCCCC(=O)NO)cc3)ncc2Cl)cc1OC`, the inhibition in assay [1] is 3.1%; in assay [2], 65%; in assay [3], 17.6%; in assay [4], 94%.
Consider `Cc1ccc(Nc2nc(Nc3ccc(NC(=O)CCCCCCC(=O)NO)cc3)ncc2Cl)cc1`, for which the inhibition in assay [1] is 7.2%; in assay [2], 86%; in assay [3], 30.1%; in assay [4], 97%.
Regarding `COc1cccc(Nc2nc(Nc3ccc(NC(=O)CCCCCCC(=O)NO)cc3)ncc2Cl)c1`, the inhibition in assay [1] worked out at 1.2%; in assay [2] it was 83%; in assay [3] it was 20%; in assay [4], 97%.
The matching figures for `CC(C)S(=O)(=O)c1ccccc1Nc1nc(Nc2ccc(NC(=O)CCCCC(=O)NO)cc2)ncc1Cl`: 84.7%, -8%, 99% and 20%.
`CC(C)S(=O)(=O)c1ccccc1Nc1nc(Nc2cccc(NC(=O)CCCC(=O)NO)c2)ncc1Cl`: the inhibition was determined as 87% in assay [1], 38% in assay [2], 98.1% in assay [3] and 83% in assay [4].
Taken in the same sequence, the figures for `CC(C)S(=O)(=O)c1ccccc1Nc1nc(Nc2cccc(NC(=O)CCCCC(=O)NO)c2)ncc1Cl` were 87.2%, 10%, 98% and 41%.
Taken in the same sequence, the figures for `O=C(CCCCCCC(=O)Nc1ccc(Nc2ncc(Cl)c(Nc3ccccc3)n2)cc1)NO` were 4.9%, 84%, 36.9% and 99%.
Taken in the same sequence, the figures for `CC(C)S(=O)(=O)c1ccccc1Nc1nc(Nc2ccc(C(=O)NCCC(=O)NO)cc2)ncc1Cl` were 86.7%, -1%, 97.3% and 3%.
For the compound `CC(C)S(=O)(=O)c1ccccc1Nc1nc(Nc2ccc(NC(=O)CCC(=O)NO)cc2)ncc1Cl`, the inhibition in assay [2] was -2%.

For orientation: inhibition means the change of the read-out against control, counted positive when it falls.
